# Source: BindingDB's records for doi:10.1021/np970367q (Seoul National University, 1998)
# Assay: Inhibition of bovine brain PI-PLCgamma1 at 125 ug/mL
row,SMILES,IC50 [µM]
1,CCCCCCCCCCCCCCCc1cccc(O)c1 [3-pentadecylphenol],92.6
2,CCCCCCCCCCCCCc1cccc(O)c1 [3-tridecyl phenol],88
3,CCCCCC/C=C\CCCCCCCCCc1cccc(O)c1 [3-[10'(Z)-heptadecenyl]phenol],95

# Results, then the compound that gave them:
row,IC50 [µM],SMILES
1,74,CCCCCC/C=C\CCCCCCCCCc1cccc(O)c1C(=O)O [6-[10'(Z)-heptade-cenyljsalicylic acid]
2,76.3,CCCCCC/C=C\CCCCCCCc1cccc(O)c1C(=O)O [6-{8(Z)-pentadecenyl}salicylic acid]
